Where two headings read alike, the source gives them in different places.
B1: ALDH1A1 (Homo sapiens) (protein)
chain: MSSSGTPDLPVLLTDLKIQYTKIFINNEWHDSVSGKKFPVFNPATEEELCQVEEGDKEDVDKAVKAARQAFQIGSPWRTMDASERGRLLYKLADLIERDRLLLATMESMNGGKLYSNAYLNDLAGCIKTLRYCAGWADKIQGRTIPIDGNFFTYTRHEPIGVCGQIIPWNFPLVMLIWKIGPALSCGNTVVVKPAEQTPLTALHVASLIKEAGFPPGVVNIVPGYGPTAGAAISSHMDIDKVAFTGSTEVGKLIKEAAGKSNLKRVTLELGGKSPCIVLADADLDNAVEFAHHGVFYHQGQCCIAASRIFVEESIYDEFVRRSVERAKKYILGNPLTPGVTQGPQIDKEQYDKILDLIESGKKEGAKLECGGGPWGNKGYFVQPTVFSNVTDEMRIAKEEIFGPVQQIMKFKSLDDVIKRANNTFYGLSAGVFTKDIDKAITISSALQAGTVWVNCYGVVSAQCPFGGFKMSGNGRELGEYGFHEYTEVKTVTVKISQKNS
notes: made in house

Experiments:
[1] = Photophysical properties (absorbance, emission, extinction coefficient, quantum yield); format: physicochemical; conditions: for Quantum Yield: Probes 1-8
[2] = Stability of the fluorophore against water-mediated decomposition; format: physicochemical
[3] = molecular target: T1, ALDH1A3 (Homo sapiens, UniProt P47895); test: ALDH isoform selectivity of red probes: ALDH1A3; format: biochemical; conditions: for Enzyme Activity 1A3: Table 2
T1 construct: made in house
T1 sequence (P47895 1-512): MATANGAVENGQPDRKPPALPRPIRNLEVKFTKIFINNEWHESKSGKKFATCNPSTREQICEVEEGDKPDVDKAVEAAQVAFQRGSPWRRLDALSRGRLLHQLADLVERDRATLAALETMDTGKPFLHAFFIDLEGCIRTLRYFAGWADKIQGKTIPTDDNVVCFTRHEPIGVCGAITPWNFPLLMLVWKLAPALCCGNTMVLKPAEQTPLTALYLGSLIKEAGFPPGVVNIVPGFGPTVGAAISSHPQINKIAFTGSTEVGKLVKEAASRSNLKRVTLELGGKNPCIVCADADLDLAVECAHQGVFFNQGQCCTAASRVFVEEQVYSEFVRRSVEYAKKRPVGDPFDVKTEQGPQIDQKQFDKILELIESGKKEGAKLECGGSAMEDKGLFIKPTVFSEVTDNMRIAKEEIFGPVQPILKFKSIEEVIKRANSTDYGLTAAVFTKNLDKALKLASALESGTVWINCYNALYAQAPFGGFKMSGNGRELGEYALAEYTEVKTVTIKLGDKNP
Protocol: (§1) Each ALDH isoform was added to a 50 mM triethanolamine solution (pH 7.4) containing 2.0 mM NAD^+ and 100 μM substrate at room temperature. Benzaldehyde was the substrate for ALDH3A1. Propanal was the substrate for all other isoforms. ALDH isoform activity was determined by monitoring the rate of NADH production through the increase in absorbance at 340 nm (ε=6220 M^−1cm^−1). For these assays, 1 unit is defined as the amount of enzyme that catalyzes the conversion of […] per minute. For every combination of dye and enzyme, 2 μM dye was preincubated with 2.0 mM NAD^+ in 50 mM triethanolamine solution (pH 7.4). The reaction was initiated by addition of 1 unit of ALDH. Dyes were excited at 590 nm, and fluorescence was measured continuously at 610 nm.

[4] = molecular target: T2, ALDH1A1 (Homo sapiens, UniProt P00352); test: ALDH isoform selectivity of red probes: ALDH1A1; format: biochemical; conditions: for Enzyme Activity 1A1 / Enzymatic Turn On: Table 2; for Enzymatic Turn On: ALDH1A1, 2 μM dye
T2 construct: made in house
T2 sequence (P00352 1-501): B1 chain
Protocol: as §1

[5] = tested on: e-CSC and non-CSC B16F0 tumors; test: In vivo melanoma tumor fluorescence imaging; set-up: species or system mice; conditions: 1 and 2 weeks
[6] = tested on: K562 cells; test: Trypan blue cytotoxicity / viability assay; format: cell-based
Protocol: K562 cells were plated in a 96-well plate with 50,000 cells per well. Each well was filled to a final volume of 100 μL IMDM media with 0.25% DMSO. Wells were tested using red-AlDeSense or Ctrl-red-AlDeSense (1 μM and 5 μM each) or using a DMSO control. After 6-, 12-, and 24-hour incubation periods at 37° C. and 5% CO2, a 10 μL sample was removed from each condition and combined with 10 μL 0.4% w/v trypan blue in PBS. Samples were incubated for 3 minutes at room temperature before being loaded on a hemocytometer where live and dead cells were counted. Conditions were tested in triplicate for each time point. Samples were analyzed on an EVOS digital inverted microscope using transmitted white light for brightfield imaging and the Cy5 filter cube for trypan blue visualization.
K562 cells were plated in a 96-well plate at a density of 500,000 cells/mL in full IMDM media supplemented with either 1 μM or […] AlDeSense AM. Equivalent samples were supplemented with 1 μM or […] as a vehicle control. At 6, 12, and 24 hours, a 10 μL sample was removed from each of the samples and mixed 1:1 with a 0.4% wt/volume trypan blue solution in PBS. Samples were incubated for 1 minute at room temperature before being loaded onto a hemocytometer where live and dead cells were counted. Each sample was made in triplicate for each time point.

[7] = molecular target: T2, ALDH1A1; test: Fluorescence turn-on of AlDeSense with recombinant ALDH1A1; format: biochemical; conditions: fluorescent enhancement when treated with ALDH1A1; 1 μM probe
Protocol: Activation of AlDeSense was assessed using 20 units of each ALDH isoform. Activity was determined by activity measurements using each isoform's preferred substrate (1 unit=1 μmol substrate turned over/mol enzyme/min). Further details are in the supplementary information. All enzymatic reactions were performed in 50 mM triethanolamine buffer (pH 7.4, Thermo Fisher) with 2.5 mM NAD+(Alfa Aesar) and 5% v/v DMSO (Thermo Fisher) in a 1 mL quartz cuvette at room temperature.
AlDeSense activation was determined using fluorescence. Immediately before measurement, AlDeSense (1 μM) was added to a quartz cuvette. After vigorous mixing, the reaction was monitored at room temperature for 15 min. Fluorescence spectra were acquired according to following parameters: λex=498 nm, and emission range=505-580 nm. All scans were normalized to the signal from AlDeSense in 50 mM TEA and 2.5 mM NAD+(without enzyme). Endpoint measurements at 15 min were performed in triplicate and reported as the averages±standard deviation.

[8] = tested on: e-CSC and non-CSC melanoma lung metastases; test: Ex vivo lung metastases imaging; format: in vivo, mice; conditions: lungs perfused ex vivo, day 7 and 11
Protocol: Six to eight-week-old female C57BL/6J mice were purchased from Jackson Laboratory. Experimental metastases were established by injecting 2×10^5 melanoma cells via lateral tail vein injection. Mice were euthanized at either 7- or 11-days post injection. Immediately after euthanization, their lungs were excised and perfused with about 1 mL of either 15 μM AlDeSense AM or 15 μM Ctrl-AlDeSense AM in PBS. Outer portions of the lungs were rinsed in 15 mL of PBS to remove blood or excess dyes. After 2 hours incubation at room temperature (25° C.), the lungs were imaged on the IVIS spectrum imaging system (Perkin Elmer). Data was processed using Living Image software (Version 4.1).

[9] = pKa determination (pH profile of fluorescence); conditions: Britton-Robinson buffer
Protocol: The fluorescence of 1 μM of each compound was measured in 40 mM Britton-Robinson buffer at pH 2-9 in 0.5 pH intervals. Each measurement was performed in triplicate. […] Error bars are ±standard deviation (SD).

[10] = Log D7.4; format: physicochemical; conditions: pH 7.4
[11] = substrate: Cc1cc(C=O)ccc1-c1c2cc(F)c(=O)cc-2oc2cc(O)c(F)cc12; test: ALDH1A1 kinetics; format: biochemical, human; conditions: other: ALDH1A1, identical conditions; pH 7.4
Protocol: (§2) Solutions were prepared of 2.0 mM NAD+ and 0.1-2.5 μM AlDeSense or red-AlDeSense in 50 mM triethanolamine solution (pH 7.4). For every concentration, 1 unit of enzyme (as defined and determined in ALDH Isoform Selectivity) was added. Fluorescence was monitored for 30 seconds to determine V0. AlDeSense was excited at 490 nm and monitored at 510 nm. Red-AlDeSense was excited at 590 nm and monitored at 610 nm. Each condition was performed in triplicate. Protein concentration was determined using the Pierce™ BCA Protein Assay Kit. Data was analyzed using Microsoft Excel.

[12] = substrate: Cc1cc(C=O)c(F)c(F)c1C1=C2C=CC(=O)C=C2[Si](C)(C)c2cc(O)ccc21; test: ALDH1A1 kinetics; format: biochemical, human; conditions: other: ALDH1A1, identical conditions; pH 7.4
Protocol: as §2

Molecule | Quantum Yield [1] | selectivity ALDH1A1 versus ALDH1A3 [3] | Enzyme Activity 1A3 [3] | turn-on response when treated with ALDH1A1 [4] [fold] | Enzyme Activity 1A1 [4] | Enzymatic Turn On [4] | other results
C[Si]1(C)C2=CC(=O)C=CC2=C(c2ccc(C=O)cc2[N+](=O)[O-])c2ccc(O)cc21 [Probe 4, 4-(7-Hydroxy-5,5-dimethyl-3-oxo-3,5-dihydrodibenzo[b, e]silin-10-yl)-3-nitrobenzaldehyde] | 0.00 | – | – | – | – | – | –
C[Si]1(C)C2=CC(=O)C=CC2=C(c2ccc(C=O)cc2F)c2ccc(O)cc21 [Probe 2, 3-Fluoro-4-(7-hydroxy-5,5-dimethyl-3-oxo-3,5-dihydrodibenzo[b, e]silin-10-yl)benzaldehyde] | – | – | – | – | – | – | stability against water-mediated decomposition of the fluorophore [2]: rapid decomposition
Cc1cc(C=O)ccc1C1=C2C=CC(=O)C=C2[Si](C)(C)c2cc(O)ccc21 [Probe 1, 4-(7-Hydroxy-5,5-dimethyl-3-oxo-3,5-dihydrodibenzo[b, e]silin-10-yl)-3-methylbenzaldehyde] | 0.32 | no longer selective for ALDH1A1 | Medium | 1.7 | High | 1.7 | –
CC(=O)c1ccc(-c2c3cc(F)c(=O)cc-3oc3cc(O)c(F)cc23)c(C)c1 [Ctrl-AlDeSense] | – | – | – | – | – | – | signal in e-CSC versus non-CSC tumors [5]: did not show increased signal; toxicity in cell viability assay ([6]; K562 cells, 6, 12 and 24 hours): non-toxic; Turn-on (fold) [7]: 0 fold; ε [1]: 68000 M⁻¹ cm⁻¹; λcm ([1]; Table 1): 518 nm; λabs ([1]; maximum absorbance): 496 nm; ΦF ([1]; prior to activation): 0.039; fluorescence of e-CSC lungs versus non-CSC lungs [8]: not statistically different; pKa [9]: 4.47; logD [10]: 0.87
Cc1cc(C(=O)O)ccc1-c1c2cc(F)c(=O)cc-2oc2cc(O)c(F)cc12 [oxidized AlDeSense] | – | – | – | – | – | – | toxicity in cell viability assay ([6]; K562 cells, 6, 12 and 24 hours): non-toxic
Cc1c(F)c(C=O)cc(F)c1C1=C2C=CC(=O)C=C2[Si](C)(C)c2cc(O)ccc21 [Probe 8, 2,5-Difluoro-4-(7-hydroxy-5,5-dimethyl-3-oxo-3,5-dihydrodibenzo[b, e]silin-0-yl)-3-methylbenzaldehyde] | 0.20 | selectivity was eroded | Medium | – | High | 3.1 | –
CC(=O)c1cc(F)c(C2=C3C=CC(=O)C=C3[Si](C)(C)c3cc(O)ccc32)c(C)c1F [Ctrl-red-AlDeSense, 10-(4-A cetyl-3,6-difluoro-2-methylphenyl)-7-hydroxy-5,5-dimethyldibenzo[b, e]silin-3(5H)-one] | – | – | – | – | – | – | toxicity in cell viability assay [6]: nontoxic
Cc1cc(C=O)c(F)cc1C1=C2C=CC(=O)C=C2[Si](C)(C)c2cc(O)ccc21 [Probe 5, 2-Fluoro-4-(7-hydroxy-5,5-dimethyl-3-oxo-3,5-dihydrodibenzo[b, e]silin-10-yl)-5-methylbenzaldehyde] | 0.21 | – | Low | 2.6 | High | 2.6 | –
C[Si]1(C)C2=CC(=O)C=CC2=C(c2c(F)cc(C=O)cc2F)c2ccc(O)cc21 [Probe 6, 3,5-Difluoro-4-(7-hydroxy-5,5-dimethyl-3-oxo-3,5-dihydrodibenzo[b, e]silin-10-yl)benzaldehyde] | 0.13 | exhibited cross-reactivity with ALDH1A3 | High | 3.9 | High | 3.9 | stability against water-mediated decomposition of the fluorophore [2]: prevent water-mediated decomposition
B1 | – | – | – | – | – | – | kcat/Km [11]: 57700 M⁻¹ s⁻¹; kcat/Km [12]: 132000 M⁻¹ s⁻¹

— US11407725B2 (The Board of Trustees of the University of Illinois, priority 2018, dated 2022)
